Assay results published in patent US12702654B2, “Compositions and methods for treating homocystinuria and other conditions using polyamines” (THE REGENTS OF THE UNIVERSITY OF COLORADO, priority 2020, dated 2026).

Columns and labels:
HO HCU mice [1] = test: Hepatic polyamines and MTA by LC-tandem MS in HO HCU mice; type: in vivo, mouse
Description: A comparative reference data set was generated for these mice by examining plasma levels of tHcy, methionine, cysteine, serine, glycine, dimethylglycine, methylglycine (MG, SAM and SAH). In brief, determination of plasma levels of amino acids relevant to the methionine cycle were determined using methods similar to those described in Stabler et al., Blood. 81 (1993) 3404-3413, incorporated in its entirety herein. […] The global metabolomic analysis of methionine and folate cycle related metabolites was carried out by Metabolon, Inc. Briefly, sample preparation was performed utilizing the automated MicroLab STAR® system. Sample preparation was performed using a proprietary series of organic and aqueous extractions to remove the protein fraction while allowing maximum recovery of small molecules. The resulting extract was divided into two fractions: one for analysis by liquid chromatography and one for analysis by gas chromatography. Each sample was then frozen and dried under vacuum. The LC/mass spectrometer portion of the platform was based on a Waters ACQUITY UPLC and a Thermo-Finnigan LTQ mass spectrometer, which consisted of an electrospray ionization source and linear ion-trap mass analyzer. Samples were analyzed on a Thermo-Finnigan Trace DSQ fast-scanning single-quadrupole mass spectrometer using electron impact ionization. Identification of known chemical entities was based on comparison to library entries of authenticated standards. Tissue polyamines putrescine, spermidine and spermine and 5-methylthioadenosine (MTA) were determined by liquid chromatography-tandem mass spectrometry using methods similar to those described in Stevens et al., J Chromatogr A 1217 (2010) 3282-3288, incorporated in its entirety herein.

SAHH = test: Western blotting of hepatic SAHH expression; type: in vivo, mouse; conditions: HO mice, 30 g/l in drinking water ad libitum, one week
Description: (§1) To investigate the effects of these treatments upon the hepatic regulatory changes in enzyme expression induced by HCU, the human transgenic HO mouse model of HCU was used. In brief, experimental groups consisting of 8 HO mice on a C57BL/6J background and 8 C57BL/6J WT littermate control mice bred in house were used. Mice in both groups were male and aged between 3 and 4 months. Except where otherwise stated, all mice were maintained on standard chow. All diets were administered using a paired-feeding design to ensure isocaloric intake between all experimental groups and body weights were measured once per week. There was no significant difference in body weight between mice in any of the experimental groups. Betaine and taurine were in this example, both administered by dissolving these compounds in drinking water at 30 g/l ([…] 3% w/v) and were supplied ad libitum for one week. Treatment water was replenished twice per week.
(§2) Western blotting analysis of SAHH, MTHFR and SHMT2 expression was performed in liver samples from HO mice in the presence and absence of betaine or taurine treatment.

MTHFR = test: Western blotting of hepatic MTHFR expression; type: in vivo, mouse; conditions: HO mice, 30 g/l in drinking water ad libitum, one week
Description: as §1, §2

GNMT = test: Western blotting of hepatic GNMT expression; type: in vivo, mouse; conditions: HO HCU mice, 30 g/l in drinking water ad libitum, one week
Description: as §1
These observations are the first to report betaine and taurine acting to regulate expression of these processes. Therefore, this observation supports that taurine alone or in combination with betaine and other treatments for genetic homocystinuria are viable options for avoiding dietary restraints and treating these conditions.

BHMT = test: Hepatic BHMT protein during long-term betaine treatment; type: in vivo, mouse
[2] = system: mouse model of MTR deficient homocystinuria; test: tHcy in mouse model of MTR deficient homocystinuria; type: in vivo; conditions: betaine supplementation
Text: In the following exemplary experiments, it was observed that betaine supplementation was limited as observed in a mouse model of MTR deficient homocystinuria. As noted in FIG. 1, homocystinuria can occur due to defects in the Hcy remethylation enzymes MTR or MTHFR. It was observed that supplementation of betaine in certain experiments with a mouse model of MTR deficient homocystinuria lead to reduction of tHcy of approximately 25% having little effect on the condition. This modest decrease in betaine mediated treatment of MTR deficient homocystinuria has also been observed in human patients with this form of homocystinuria.

ApoA-1 = ApoA-1 expression in HO model; type: in vivo, mouse; conditions: one-week treatment protocol
Description: In another exemplary method, the transsulfuration pathway and methionine-folate cycle pathways, as show in the sematic illustrated in FIG. 18A, were assessed. In brief, three experimental groups (n=8 for each group) of male mice consisting of either untreated WT controls or HO HCU mice in the presence or absence of betaine treatment. Betaine was administered by dissolving the compound in drinking water at 30 g/l and was supplied ad libitum to the mice for one week. Treatment water was replenished twice per week.

HO HCU mice [3] = conditions: earlier study, cited from earlier work
HO HCU mice [4] = conditions: earlier study, cited from earlier work; remark: listed apart in the source
[5] = HO HCU mice, one week of betaine treatment
[6] = HCU mice, longer period of betaine treatment
[7] = mouse model of HCU, betaine treatment

SMILES: C[N+](C)(C)CC(=O)O [betaine, N,N,N-trimethylglycine]
- hepatic levels of putrescine (HO HCU mice [1]; HO HCU mice ± betaine vs WT, n=8 per group, data not shown): no statistical difference
- hepatic spermidine (HO HCU mice [1]; [5]): normalized relative to WT mice
- hepatic spermine (HO HCU mice [1]; [5]): normalized relative to WT mice
- hepatic MTA levels compared to untreated HO HCU mice (HO HCU mice [1]; HO HCU mice, one week of betaine treatment, p<0.001): approximate doubling
- HCU-mediated induction of hepatic SAHH expression (SAHH): completely reversed
- HCU-mediated induction of hepatic MTHFR expression (MTHFR): completely reversed
- hepatic GNMT expression (GNMT): induced expression
- BHMT protein levels (BHMT): significantly higher levels of BHMT protein
- BHMT as share of total hepatic protein (BHMT; approximately 2% without): 8-10%
- reduction of tHcy [2]: approximately 25%
- ApoA-1 expression (ApoA-1): increase ApoA-1 expression
- total homocysteine levels after a longer period of treatment (HO HCU mice [3]; [6]): greater than 100 μM
- plasma homocysteine (HO HCU mice [3]; [7]): below 100 μM
- hypercoagulative phenotype after a longer period of treatment (HO HCU mice [4]; [6]): return to the hypercoagulative phenotype
- hypercoagulative phenotype (HO HCU mice [4]; [7]): significantly ameliorated the hypercoagulative phenotype
